Experimental findings from ChEMBL document CHEMBL3879883, “GPR 17 agonists and screening assay” (2013) are described below.

Experiment [1] deals with T1, Uracil nucleotide/cysteinyl leukotriene receptor (Homo sapiens, UniProt Q13304). The experiment can be described thus: Agonist activity at recombinant human GPR17 short isoform transfected in CHO cells assessed as mobilization of intracellular Ca2+ at 0.3 uM after 20 mins by oregon green 488 BAPTA-1/AM dye-based fluorescence assay relative to control. Type of experiment: functional, cell-based.

Experiment [2] can be described thus: Effect on Ca2+ mobilization in GPR17 deficient human 1321N1 cells at 0.3 uM after 20 mins by oregon green 488 BAPTA-1/AM dye-based fluorescence assay. Type of experiment: functional. Background: A change in cytosolic calcium serves as a functional read-out for many receptors and channels.
Experiment [3] has as its system CHO-K1. The experiment can be described thus: Effect on Ca2+ mobilization in GPR17 deficient CHOK1 cells at 0.3 uM after 20 mins by oregon green 488 BAPTA-1/AM dye-based fluorescence assay. Type of experiment: functional, Cricetulus griseus.
Experiment [4] deals with T1, Uracil nucleotide/cysteinyl leukotriene receptor. In words: Agonist activity at recombinant human GPR17 short isoform transfected in human 1321N1 cells assessed as mobilization of intracellular Ca2+ at 10 uM after 20 mins by oregon green 488 BAPTA-1/AM dye-based fluorescence assay relative to control. Type of experiment: functional, cell-based.
For experiment [5] the target is unchanged. In words: Agonist activity at recombinant human GPR17 short isoform transfected in CHO cells assessed as mobilization of intracellular Ca2+ after 20 mins by oregon green 488 BAPTA-1/AM dye-based fluorescence assay. Type of experiment: functional, cell-based.
For experiment [6] the target is unchanged. In words: Agonist activity at recombinant human GPR17 short isoform transfected in human 1321N1 cells assessed as mobilization of intracellular Ca2+ at 1 uM after 20 mins by oregon green 488 BAPTA-1/AM dye-based fluorescence assay relative to control. In kind it is functional, cell-based.
The target is the same in experiment [7]. The experiment can be described thus: Agonist activity at recombinant human GPR17 short isoform transfected in CHO cells assessed as mobilization of intracellular Ca2+ at 1 uM after 20 mins by oregon green 488 BAPTA-1/AM dye-based fluorescence assay relative to control. Type of experiment: functional, cell-based.
The nature of experiment [8]: Effect on Ca2+ mobilization in GPR17 deficient human 1321N1 cells at 1 uM after 20 mins by oregon green 488 BAPTA-1/AM dye-based fluorescence assay. In kind it is functional.
The subject of experiment [9] is CHO-K1. The experiment can be described thus: Effect on Ca2+ mobilization in GPR17 deficient CHOK1 cells at 1 uM after 20 mins by oregon green 488 BAPTA-1/AM dye-based fluorescence assay. In kind it is functional, Cricetulus griseus.
Experiment [10] concerns the target T1, Uracil nucleotide/cysteinyl leukotriene receptor. The experiment can be described thus: Antagonist activity at recombinant human GPR17 short isoform transfected in CHO cells assessed as inhibition of RA-II-150-mediated intracellular Ca2+ mobilization preincubated for 5 to 30 mins followed by RA-II-150 addition measured after 20 mins by oregon green 488 BAPTA-1/AM dye-based fluorescence assay. Type of experiment: functional, cell-based.

Experiment [11] has the same target. In words: Agonist activity at recombinant human GPR17 short isoform transfected in human 1321N1 cells assessed as mobilization of intracellular Ca2+ after 20 mins by oregon green 488 BAPTA-1/AM dye-based fluorescence assay. Type of experiment: functional, cell-based.
Experiment [12] has the same target. The experiment can be described thus: Agonist activity at recombinant human GPR17 short isoform transfected in CHO cells assessed as inhibition of forskolin-stimulated intracellular cAMP accumulation after 30 mins by FRET assay. Type of experiment: functional, cell-based. Background: Cyclic AMP is a second messenger, typically raised through Gs and lowered through Gi signalling.

In experiment [13] the test system is CHO. In words: Inhibition of forskolin-stimulated intracellular cAMP accumulation in CHO cells after 30 mins by FRET assay. Type of experiment: functional, cell-based. Conditions: Cricetulus griseus.
For experiment [14], the target named is T1, Uracil nucleotide/cysteinyl leukotriene receptor. The experiment can be described thus: Agonist activity at recombinant human GPR17 short isoform transfected in human 1321N1 cells assessed as mobilization of intracellular Ca2+ at 3 uM after 20 mins by oregon green 488 BAPTA-1/AM dye-based fluorescence assay relative to control. In kind it is functional, cell-based.

The target is the same in experiment [15]. The experiment can be described thus: Agonist activity at recombinant human GPR17 short isoform transfected in CHO cells assessed as mobilization of intracellular Ca2+ at 3 uM after 20 mins by oregon green 488 BAPTA-1/AM dye-based fluorescence assay relative to control. In kind it is functional, cell-based.
Experiment [16] can be described thus: Effect on Ca2+ mobilization in GPR17 deficient human 1321N1 cells at 3 uM after 20 mins by oregon green 488 BAPTA-1/AM dye-based fluorescence assay. Type of experiment: functional.
The test system of experiment [17] is CHO-K1. The experiment can be described thus: Effect on Ca2+ mobilization in GPR17 deficient CHOK1 cells at 3 uM after 20 mins by oregon green 488 BAPTA-1/AM dye-based fluorescence assay. In kind it is functional, Cricetulus griseus.
The nature of experiment [18]: Effect on Ca2+ mobilization in GPR17 deficient human 1321N1 cells at 0.1 uM after 20 mins by oregon green 488 BAPTA-1/AM dye-based fluorescence assay. Type of experiment: functional.
The test system of experiment [19] is CHO-K1. In words: Effect on Ca2+ mobilization in GPR17 deficient CHOK1 cells at 0.1 uM after 20 mins by oregon green 488 BAPTA-1/AM dye-based fluorescence assay. In kind it is functional, Cricetulus griseus.

Calls of active or inactive are those of the source. The rule behind the calls is not given here.

T1 sequence (Q13304 whole entry, canonical isoform): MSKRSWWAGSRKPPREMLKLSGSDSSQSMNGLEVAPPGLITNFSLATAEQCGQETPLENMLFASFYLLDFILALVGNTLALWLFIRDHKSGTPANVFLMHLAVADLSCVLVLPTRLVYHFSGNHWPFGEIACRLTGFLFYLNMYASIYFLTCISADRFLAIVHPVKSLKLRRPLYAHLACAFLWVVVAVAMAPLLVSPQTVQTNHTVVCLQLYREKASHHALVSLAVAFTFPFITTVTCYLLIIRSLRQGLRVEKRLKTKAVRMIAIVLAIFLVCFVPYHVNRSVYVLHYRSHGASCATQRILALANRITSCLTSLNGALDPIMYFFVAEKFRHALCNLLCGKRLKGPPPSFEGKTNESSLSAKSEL

Take `O=C(O)CCc1c(C(=O)O)[nH]c2cc(Br)cc(Br)c12`: the Activity is 89% in experiment [1], 0% in [2], 0% in [3] and 106% in experiment [4].
Regarding `O=C(O)CCc1c(C(=O)O)[nH]c2cc(-c3ccccc3)ccc12`, the EC50 in experiment [5] was 0.724 µM.
With `Cc1cc(C)c2c(CCC(=O)O)c(C(=O)O)[nH]c2c1`, the Activity in [6] is 76%; in [7], 68%; in experiment [8] it was 1%; in experiment [9] it was 1%.
`O=C(O)CCc1c(C(=O)O)[nH]c2cc(Cl)ccc12`: the Activity in experiment [6] came to 84%; in [7], 94%; in experiment [2], 4%; in experiment [3], 1%.
As to `O=C(Nc1cccc2c(=O)cc(-c3nnn[nH]3)oc12)c1ccc(OCCCCc2ccccc2)cc1`, in [10], the inhibition result was “Dose-dependent effect”.
As to `O=C(O)CCc1c(C(=O)O)n(CCC(=O)O)c2cc(Cl)cc(Cl)c12`, the results for the EC50 in experiment [11] and in [5] were 5.25 µM and 0.186 µM, respectively. Further, the Activity in [6] came out at 80%; in experiment [7] it was 85%; in experiment [8], 1%; in experiment [9], 1%.
As to `NCC(=O)CCC(=O)O`, the inhibition entry in experiment [12] and in experiment [13] was “Active” each time.
Turning to `O=C(O)CCc1c(C(=O)O)[nH]c2cc(F)cc(F)c12`, the Activity in experiment [14] amounted to 77%; in experiment [15], 97%; in experiment [16] it was 2%; in experiment [17] it was 1%.
In the case of `O=C(O)CCc1c(C(=O)O)[nH]c2cc(I)ccc12`, the EC50 in [5] was 0.708 µM.
Same read-out and setting: then `O=C(O)CCc1c(C(=O)O)[nH]c2cc(-c3ccccc3)cc(-c3ccccc3)c12`, with 3.02 µM.
On to `O=C(O)CCc1c(C(=O)O)[nH]c2cc(Cl)cc(Cl)c12`, for which the results for the Activity in [1], in [18] and in [19] were 100%, 0% and 0%, respectively.
Consider `O=C(O)CCc1c(C(=O)O)[nH]c2cc(I)cc(I)c12`, for which the EC50 in experiment [5] is 4.79 µM.
`O=C(O)CCc1c(C(=O)O)[nH]c2cc(Br)ccc12`: the EC50 in experiment [5] was 3.16 µM.

Broadly, the EC50 is the concentration needed to bring the measured effect to its halfway point.
